{"source": "ChEMBL document CHEMBL1641536", "about": "“The identification, and optimisation of hERG selectivity, of a mixed NET/SERT re-uptake inhibitor for the treatment of pain” (Bioorg Med Chem Lett, 2011)", "key": {"[1]": {"test": "Oral bioavailability in Wistar rat at 10 mg/kg", "type": "ADME, organism-based", "settings": "in vivo"}, "[2]": {"test": "Half life in Wistar rat at 10 mg/kg, po", "type": "ADME, organism-based", "design": "dose 10 mg/kg, route oral", "settings": "in vivo"}, "[3]": {"test": "Tmax in Wistar rat at 10 mg/kg, po", "type": "ADME, organism-based", "design": "dose 10 mg/kg, route oral", "settings": "in vivo"}, "[4]": {"test": "Volume of distribution at steady state in Wistar rat at 1 mg/kg, iv", "type": "ADME, organism-based", "design": "dose 1 mg/kg, route intravenous", "settings": "in vivo, read-out: Vdss"}, "Rattus norvegicus": {"system": "Rattus norvegicus", "test": "AUC in Wistar rat at 1 mg/kg, iv", "type": "ADME, organism-based, Plasma", "design": "dose 1 mg/kg, route intravenous", "settings": "in vivo"}}, "data": [{"smiles": "N#Cc1cc(O[C@@H]2C[C@H]3CC[C@@H](C2)N3)cc(-c2ncccc2C#N)c1", "values": [{"measurement": "bioavailability", "setting": "[1]", "result": 34, "unit": "%"}, {"measurement": "half-life", "setting": "[2]", "result": 3.2, "unit": "h"}, {"measurement": "Tmax", "setting": "[3]", "result": 1.7, "unit": "h"}, {"measurement": "Vd", "setting": "[4]", "result": 6.9, "unit": "L/kg"}, {"measurement": "AUC", "setting": "Rattus norvegicus", "result": 563, "unit": "ng·h/mL"}]}]}
